Measured values published in patent US5100895A, “Heterocyclic compounds and their preparation and use” (Novo Nordisk A/S, priority 1989, dated 1992).

Tested on: benzodiazepine receptors
Experiment: in vivo displacement of 3H-flunitrazepam specific binding to benzodiazepine receptors in a living brain
Conditions: dose which causes specific binding of 3H-flunitrazepam to benzodiazepine receptors in a living brain to be reduced to 50% of the control value
Excerpt: The pharmaceutical properties of the compounds of the invention can be illustrated by determining their capability for displacing radioactive labelled flunitrazepam from benzodiazepine receptors.
The displacement activity of the compounds of the invention may be found by determining the ED50 value. The ED50 value represents the dose (mg/kg) of a test substance which causes the specific binding of ^3 H-flunitrazepam to benzodiazepine receptors in a living brain to be reduced to 50% of the control value.
Such an in vivo test is carried out as described in U.S. Pat. No. 4,774,245.

| Structure (SMILES) | ED50 [mg/kg] |
| --- | --- |
| Brc1cccc2c1C1=NCCN1c1c(-c3nc(C4CC4)no3)ncn1-2 [Compound 8, 12-Bromo-5-(3-cyclopropyl-1,2,4-oxadiazol-5-yl)-2,3-dihydrodiimidazo[1,5-a:1',2'-c]quinazoline] | 1.7 |
| FC(F)(F)c1cccc2c1C1=NCCN1c1c(-c3noc(C4CC4)n3)ncn1-2 [Compound 12, 5-(5-Cyclopropyl-1,2,4-oxadiazol-3-yl)-2,3-dihydro-12-trifluoromethyldiimidazo[1,5-a:1',2'-c]quinazoline] | 0.08 |
| Fc1ccc2c(c1)C1=NCCN1c1c(-c3noc(C4CC4)n3)ncn1-2 [Compound 21, 5-(5-Cyclopropyl-1,2,4-oxadiazol-3-yl)-11-fluoro-2,3-dihydrodiimidazo[1,5-a:1',2'-c]quinazoline] | 0.26 |
| Clc1cccc2c1C1=NCCN1c1c(-c3noc(C4CC4)n3)ncn1-2 [Compound 6, 12-Chloro-5-(5-cyclopropyl-1,2,4-oxadiazol-3-yl)-2,3-dihydrodiimidazo[1,5-a:1',2'-c]quinazoline] | 0.23 |
| c1ccc2c(c1)C1=NCCN1c1c(-c3noc(C4CC4)n3)ncn1-2 [Compound 1, 5-(5-cyclopropyl-1,2,4-oxadiazol-3-yl)-2,3-dihydrodiimidazol[1,5-a:1',2'-c]quinazoline] | 0.47 |
| FC(F)(F)c1cccc2c1C1=NCCN1c1c(-c3nc(C4CC4)no3)ncn1-2 [Compound 19, 5-(3-Cyclopropyl-1,2,4-oxadiazol-5-yl)-2,3-dihydro-12-trifluoromethyldiimidazo[1,5-a:1',2'-c]quinazoline] | 0.08 |
| Brc1cccc2c1C1=NCCN1c1c(-c3noc(C4CC4)n3)ncn1-2 [Compound 7, 12-Bromo-5-(5-cyclopropyl-1,2,4-oxadiazol-3-yl)-2,3-dihydroiimidazo[1,5-a:1',2'-c]quinazoline] | 0.92 |
| FC(F)(F)c1cccc2c1c1nccn1c1c(-c3noc(C4CC4)n3)ncn21 [Compound 28, 5-(5-Cyclopropyl-1,2,4-oxadiazol-3-yl)-12-trifluoromethyldiimidazo[1,5-a:1',2'-c]quinazoline] | 0.12 |
